The source of these data is article PMC5316403, “A multicenter assessment of single-cell models aligned to standard measures of cell health for prediction of acute hepatotoxicity” (Archives of Toxicology, 2016).

The subject of data set [1] is man. Conditions: cited from earlier work.
Details of data set [2]: method as in references provided in Table 4. The note with it: therapeutic concentrations, used to calculate EC50/Cmax; ref references provided in Table 4; cited from earlier work.
Data set [3] deals with primary human hepatocytes (PHH). Put plainly: Cytotoxicity (intracellular ATP, CellTiter Glo) in primary human hepatocytes. Conditions: cryopreserved PHH, 24 or 72 h, all test sites, up to highest dose. The class given is cell-based. (In ATP-based viability assays light output follows the ATP content of the culture.)
Procedure: Cryopreserved PHH from five donors were provided by KaLy-Cell (Plobsheim, France). […] Cell number and viability were determined by the trypan blue exclusion method, and the cells were plated at a seeding density of 70,000 cells/well of a KaLy-Cell home-coated type I rat tail collagen (10 µg/well) 96-well plate. […]
(§1) The CellTiter Glo assay kit (Promega, Madison, WI, USA) was used to determine the ATP content in the cells after exposure to the thirteen compounds for 24 or 72 h. […] The supernatant samples were transferred into opaque flat-bottomed 96-well plates (Greiner-Bio-One, Frickenhausen, Germany) and the luminescence measured.
(§2) Cell viability was determined as the percentage of the fluorescent resorufin after incubation with resazurin in the treated cells compared with vehicle control or the percentage of ATP detected in the treated cells compared with vehicle control. Individual EC50 values from all participants were calculated using GraphPad Prism 6 (version 6.03) at one partner site. […]
Data set [4] concerns HepG2/ECACC cells. Kind of data set: Cytotoxicity (intracellular ATP, CellTiter Glo) in HepG2/ECACC cells. The class given is cell-based, human. Conditions: 24 or 72 h, all test sites, up to highest dose.
Procedure: A specific clone of HepG2 cells was purchased from the European Collection of Cell Cultures (ECACC). The cells were cultivated and low passage frozen stocks were generated and banked by one MIP-DILI partner designated as the cell bank. The cells were distributed to the relevant MIP-DILI partners. […] Cell number and viability were determined using the trypan blue exclusion method, and the cells were plated at a seeding density of 20,000 cells/well in BD Biocoat Collagen I 96-well plates (Beckton Dickinson, New Jersey, USA). […]
as §1, §2
Data set [5] relates to cryopreserved HepaRG cells. Kind of data set: Cytotoxicity (intracellular ATP, CellTiter Glo) in cryopreserved HepaRG cells. The class given is cell-based, human. The note with it: 24 or 72 h, all test sites, up to highest dose.
Procedure: Differentiated cryopreserved HepaRG cells were purchased from Biopredic International (Saint-Gregoire, France). The cells were thawed in Thawing/Plating Medium [Williams’ Medium E supplemented with 1 % penicillin/streptomycin, 1 % L-Glutamine, 10 % FCS and 12.5 % ADD670 cocktail (BioPredic International, Saint-Gregoire, France; proprietary medium composition)], centrifuged (500×g; 5 min; room temperature) and then resuspended in fresh Thawing/Plating Medium. After the addition of the ADD670 cocktail, the final DMSO concentration in the Thawing/Plating Medium was 0.5 %. Cell number and viability were determined by the trypan blue exclusion method, and the cells were plated at a seeding density of 72,000 cells/well in white/clear bottom 96-well plates (Beckton Dickinson, New Jersey, USA). […]
as §1
Cell viability was determined as the percentage of the fluorescent resorufin after incubation with resazurin in the treated cells compared with vehicle control or the percentage of ATP detected in the treated cells compared with vehicle control. […]
Data set [6] deals with Upcyte hepatocytes. Kind of data set: Cytotoxicity (intracellular ATP, CellTiter Glo) in Upcyte hepatocytes. The format is cell-based, human. Conditions: Upcyte cells, 24 or 72 h, all test sites, up to highest dose.
Procedure: The cells were then centrifuged (90×g; 5 min; room temperature) and resuspended in fresh Upcyte High Performance Medium (Medicyte, Heidelberg, Germany). Cell number and viability were determined via the trypan blue exclusion method, and the cells were seeded at 18,750 cells/well in white/clear bottom 96-well plates (Beckton Dickinson, New Jersey, USA). After seeding, the cells were incubated for 72 h (37 °C; 5 % CO2; 95 % air) without additional medium change prior to compound treatment.
The compound concentrations used were chosen as representative for each compound when conducting an in vitro safety assessment study. […] Stock aliquots were stored at −20 °C and only thawed once. […]
as §1, §2
[7] abbreviates: reported to cause hepatotoxicity in man or not, ref references in Table 4.

Like-named read-outs stand apart in the source and are kept apart here.

As to `COc1ccccc1Oc1c(NS(=O)(=O)c2ccc(C(C)(C)C)cc2)nc(-c2ncccn2)nc1OCCO` [Bosentan], the Hepatotoxic/non-hepatotoxic entry in data set [1] (setting [7]) is listed as “Hepatotoxic”. With `O=C1CC2(CCCC2)CC(=O)N1CCCCN1CCN(c2ncccn2)CC1` [Buspirone], the Hepatotoxic/non-hepatotoxic entry in data set [1] (setting [7]) is reported as “Non-hepatotoxic”. Turning to `O=C(O)Cc1ccccc1Nc1c(Cl)cccc1Cl` [Diclofenac], the Hepatotoxic/non-hepatotoxic entry in data set [1] (in vivo) is reported as “Hepatotoxic”. The term Cmax denotes the highest concentration seen after dosing. As for `CCN(CC)C(=O)/C(C#N)=C/c1cc(O)c(O)c([N+](=O)[O-])c1` [Entacapone], the Cmax in data set [2] is 1500 nM. In data set [1] (setting [7]), the Hepatotoxic/non-hepatotoxic entry is “Non-hepatotoxic”. As for `CN(C)C(=N)N=C(N)N` [Metformin], the Cmax in data set [2] is 7740 nM. With `CCc1nn(CCCN2CCN(c3cccc(Cl)c3)CC2)c(=O)n1CCOc1ccccc1` [Nefazodone], in data set [2], the peak concentration (Cmax) is 859 nM. Besides, in data set [1] (setting [7]), the Hepatotoxic/non-hepatotoxic result is given as “Hepatotoxic”.

`CC(=O)Nc1ccc(O)cc1` [Paracetamol]: in data set [1] (setting [7]), the Hepatotoxic/non-hepatotoxic entry is reported as “Hepatotoxic”.

Consider `C1CCC(C(CC2CCCCN2)C2CCCCC2)CC1` (stereo not drawn) [Perhexiline], for which the peak concentration (Cmax) in data set [2] was 1520 nM. In addition, the Hepatotoxic/non-hepatotoxic entry in data set [1] (setting [7]) is reported as “Hepatotoxic”. With `CCc1ccc(CCOc2ccc(CC3SC(=O)NC3=O)cc2)nc1` (stereo not drawn) [Pioglitazone], in data set [2], the Cmax is 2670 nM. Further, the Hepatotoxic/non-hepatotoxic entry in data set [1] (setting [7]) was “Non-hepatotoxic”. With `Cc1ccc(C(=O)c2cc(O)c(O)c([N+](=O)[O-])c2)cc1` [Tolcapone], the highest concentration (Cmax) in data set [2] was 27800 nM. In addition, in data set [1] (setting [7]), the Hepatotoxic/non-hepatotoxic result is “Hepatotoxic”.

On to `Cc1c(C)c2c(c(C)c1O)CCC(C)(COc1ccc(CC3SC(=O)NC3=O)cc1)O2` (stereo not drawn) [Troglitazone], for which, in data set [2], the Cmax is 6390 nM. The Hepatotoxic/non-hepatotoxic result in data set [1] (setting [7]) is “Hepatotoxic”. As for `CCOC(=O)CN[C@@H](C(=O)N1CC[C@H]1C(=O)NCc1ccc(/C(N)=N\O)cc1)C1CCCCC1` [Ximelagatran], the “toxicity (cell viability)” value in data set [3], in data set [4], in data set [5] and in data set [6] was “no toxicity was detected even at the highest doses” each time.
